Assay results: patent US9345691B2, “Beta-lactam compounds for enhancing T cell-mediated immune responses” (STEM CELL MEDICINE LTD., priority 2011, dated 2016)

Assays:
[1] = system: encephalitogenic BP10 T-cell line; assay: Adoptive EAE by BP10 line stimulated in vitro with test substance; type: in vivo, rat; conditions: BP10 line stimulated 3 days with MBP in presence of 50 μg/ml; 10^7 cells IP per rat
From the text: The ability of a compound to enhance T cell activity may be determined, for example, using an in vivo assay testing the effect of a given compound on the severity of adoptive (passive) EAE, namely, EAE which is induced by the injection of activated encephalitogenic T cell line to the model animal. In order to test a compound, the encephalitogenic T cells are activated in the presence of the compound prior to injection. An exemplary procedure is described in the Examples section hereinbelow.
Antigen-specific T-cell lines were established from lymph node cells that had been stimulated with myelin basic protein (MBP; 10 μg/ml) for 3 days in stimulation medium as described below. Following stimulation, the T-cell blasts were isolated on Lympho-prep (Nycomed Pharma, Oslo, Norway) and seeded in propagation medium. Propagation medium was identical to stimulation medium without autologous serum, but supplemented with fetal calf serum 10% and T-cell growth factors from the supernatant of Con A stimulated spleen cells 10% (Mor et al. (1990) J Clin Invest, 85, 1594-1598). Animals were injected intra-peritoneally with 10^7 MBP-stimulated T cells, following 6-8 cycles of in vitro stimulations. It is known that MBP-reactive lines undergo a reduction in pathogenicity after 6 or more in vitro stimulations. In some experiments the BP10 line was stimulated with phorbol myristate acetate (PMA; 50 ng/ml) and ionomycin (500 ng/ml) for 3 days in stimulation medium, without antigen-presenting cells.
Active EAE was induced by subcutaneous injection of 25 μg guinea-pig MBP (GpMBP) in complete Freund's adjuvant (CFA). CFA was prepared by adding 4 mg/ml Mycobacterium tuberculosis H37Ra (Difco, Mich.) to incomplete Freund's adjuvant (IFA). Adoptive EAE was transferred by intra-peritoneal injection of guinea-pig MBP-activated cells of the BP10 line as described in Mor et al. (1993) J Clin Invest, 92, 2199-2206. […] Clinical scoring was: +1, paralysis of tail; +1.5, paresis of posterior paws and ataxia; +2, paraplegia; +3, paralysis extending to thoracic spine; +4, a moribund state.
Treatment with cefuroxime in vivo could affect many different host agents involved in EAE or AA as well as influencing the rats' bacterial flora. To test whether the antibiotic might directly modify the behavior of effector T cells, an encephalitogenic T-cell line was stimulated in the presence or absence of cefuroxime in vitro. The weakly encephalitogenic BP10 line was used, and was stimulated for 3 days with MBP in the presence or absence of cefuroxime (50 μg/ml). The activated T cells were then washed to remove the antibiotic, the T cells were injected intra-peritoneally into naïve recipient rats (10^7 per rat), and EAE was scored. The BP10 line at later stimulations was used, when its pathogenic potential is reduced, allowing to detect both suppression and enhancement of disease. […] To rule out antigen presenting cells (APC) as the target of the beta-lactam antibiotic, the encephalitogenic BP10 line was stimulated without APC using PMA (50 ng/ml) and Ionomycin (500 ng/ml) in the presence or absence of cefuroxime.

CD4+ human T cells = assay: Human Autoimmune and Inflammatory Response Gene Array, anti-CD3 stimulated T cells; type: cell-based; conditions: 120 min anti-CD3; for % increase by Amp.: ampicillin 50 μg/ml
Experimental: T cells were purified from the peripheral bloods of healthy human donors (Blood Bank, Sheba Medical center). The whole blood was incubated (20 min, 22° C.) with RosetteSep™ human T cell enrichment mixture (StemCell Technologies, Vancouver, Canada). The remaining unsedimented cells were then loaded onto lymphocyte separation medium (ICN Biomedicals, Irvine, Calif.), isolated by density centrifugation, and washed with PBS. […] In a second round of purification, CD3^+ T cells were labeled for selection with a magnetically coupled mAb against CD4 (Miltenyi Biotec, Auburn, Calif.).
Human CD4 T cells were isolated as described, and incubated in 24 well plates (Nunc), 4×10^6 cells/ml with plate bound anti-human CD3 (OKT3) at 2 μg/ml. The stimulation was performed in RPMI medium supplemented with 0.1% BSA. […] RNA was extracted from samples and used to prepare probes for gene array in accord with the manufacturer's instructions (SuperArray Bioscience, Frederick, Md.). Adequate labeling of the probes was tested before hybridization. Three healthy donors were tested in stimulation with cefuroxime. The membranes were analyzed online with the Image Data Acquisition and Expression Analysis (SuperArray Bioscience).
The Human Autoimmune and Inflammatory Response Gene Array (SuperArray Bioscience corporation, Frederick, Md., USA) was used for analysis of gene expression by the T cells. This array contains 367 genes including cytokines, chemokines and their receptors, transcription factors and signaling proteins. […] Analysis of the results was performed using the GEArray analysis program (www.SuperArray.com). […] To verify the results detected by the gene array study, a panel of six genes was designed and tested by real-time PCR: CCR4, ACVR2, JAK1, STAT4, TLR2 and NFKBIE. The cDNA that was used was prepared from the same RNA used for the gene array experiment.

CC1(C)S[C@@H]2[C@H](NC(=O)[C@H](N)c3ccccc3)C(=O)N2[C@H]1C(=O)O [ampicillin]
severity of adoptive EAE [1]: did not increase the severity of EAE
number of the 57 cefuroxime-down-regulated genes up-regulated (CD4+ human T cells; 50 μg/ml): 56 genes
% increase by Amp. (CD4+ human T cells; gene ACTB): +196%
% increase by Amp. (CD4+ human T cells; gene ACVR1, A low expression): +53%
% increase by Amp. (CD4+ human T cells; gene ACVR2, A low expression): +85%
% increase by Amp. (CD4+ human T cells; gene CCL5): +25%
% increase by Amp. (CD4+ human T cells; gene CCL11): +107%
% increase by Amp. (CD4+ human T cells; gene CCR4): +31%
% increase by Amp. (CD4+ human T cells; gene CCR6): +83%
% increase by Amp. (CD4+ human T cells; gene CCR7): +43%
% increase by Amp. (CD4+ human T cells; gene CD28): +175%
% increase by Amp. (CD4+ human T cells; gene CD40LG): +67%
% increase by Amp. (CD4+ human T cells; gene CREBBP): +49%
% increase by Amp. (CD4+ human T cells; gene CXCL10): +25%
% increase by Amp. (CD4+ human T cells; gene EGR3): −25%
% increase by Amp. (CD4+ human T cells; gene GFI1): +10%
% increase by Amp. (CD4+ human T cells; gene HRAS, A low expression): −12%
% increase by Amp. (CD4+ human T cells; gene IL1B, A low expression): +64%
% increase by Amp. (CD4+ human T cells; gene IL2RB): +93%
% increase by Amp. (CD4+ human T cells; gene IL2RG, A low expression): +78%
% increase by Amp. (CD4+ human T cells; gene IL9R): No change
% increase by Amp. (CD4+ human T cells; gene IL16, A low expression): +14%
% increase by Amp. (CD4+ human T cells; gene IRAK1): +171%
% increase by Amp. (CD4+ human T cells; gene JAK1): +161%
% increase by Amp. (CD4+ human T cells; gene JUN): +65%
% increase by Amp. (CD4+ human T cells; gene LTA): +48.5%
% increase by Amp. (CD4+ human T cells; gene MAP2K4): +150%
% increase by Amp. (CD4+ human T cells; gene MAP3K1, A low expression): +63%
% increase by Amp. (CD4+ human T cells; gene MAP3K2): +93%
% increase by Amp. (CD4+ human T cells; gene MAP3K7): +124%
% increase by Amp. (CD4+ human T cells; gene MAPK9): +46%
% increase by Amp. (CD4+ human T cells; gene NFKB1): +31%
% increase by Amp. (CD4+ human T cells; gene NFKB2): +195%
% increase by Amp. (CD4+ human T cells; gene NFKBIE): +132%
% increase by Amp. (CD4+ human T cells; gene NFKBIL1): +191%
% increase by Amp. (CD4+ human T cells; gene PAK1): +111%
% increase by Amp. (CD4+ human T cells; gene PIN1): +105%
% increase by Amp. (CD4+ human T cells; gene RANBP5): +108%
% increase by Amp. (CD4+ human T cells; gene REL): +132%
% increase by Amp. (CD4+ human T cells; gene RFX5): +137%
% increase by Amp. (CD4+ human T cells; gene RFXAP): +131%
% increase by Amp. (CD4+ human T cells; gene SDF2): +71%
% increase by Amp. (CD4+ human T cells; gene SELL): +124%
% increase by Amp. (CD4+ human T cells; gene SMAD4): +85%
% increase by Amp. (CD4+ human T cells; gene SMAD7, A low expression): +34%
% increase by Amp. (CD4+ human T cells; gene SP3): +47%
% increase by Amp. (CD4+ human T cells; gene SRF): +58%
% increase by Amp. (CD4+ human T cells; gene STAT1): +85%
% increase by Amp. (CD4+ human T cells; gene STAT4): +11%
% increase by Amp. (CD4+ human T cells; gene STAT6): no change
% increase by Amp. (CD4+ human T cells; gene TGFBR3): +139%
% increase by Amp. (CD4+ human T cells; gene TGIF, A low expression): +72%
% increase by Amp. (CD4+ human T cells; gene TLR2, A low expression): +419%
% increase by Amp. (CD4+ human T cells; gene TNFRSF11A, A low expression): +81%
% increase by Amp. (CD4+ human T cells; gene TNFα): +39%
% increase by Amp. (CD4+ human T cells; gene TRAF5, A low expression): +47%
% increase by Amp. (CD4+ human T cells; gene TRAF6, A low expression): +39%
% increase by Amp. (CD4+ human T cells; gene YY1): +152%
